Data taken from ChEMBL document CHEMBL1123973, “Renin inhibitors containing hydrophilic groups. Tetrapeptides with enhanced aqueous solubility and nanomolar potency” (J Med Chem, 1988).
In brackets after ≈: the same amount, converted by molar mass. *1 amine or outer side, *2 acyl side, *3 side chain or, on linkers, in order; H or OH if unused. Where a SMILES comes first, the peptide text is derived from it. [ ]: non-standard residue; d: D form. The star is where a group is joined. ξ: configuration not given here. Sta = CC(C)C[C@H](N)[C@@H](O)CC(=O)O; X1 = CC(C)CC(N[*:1])C(O)CC(=O)[*:2]; ξPhg = NC(C(=O)O)c1ccccc1; Boc = CC(C)(C)OC(=O)*; NHBn = c1ccc(CN*)cc1

How the values were obtained:
physchem [1] = settings: S
[2] = Partition coefficient (logD) (octanol/citric acid-phosphate buffer)
physchem [3] = settings: phosphate buffer, pH 7.4, S
Description: Solubility (phosphate buffer, pH 7.4)

[4] = test system: Renin (Canis lupus familiaris); assay: Concentration required for 50% inhibition of renin at 10e-6 M of the compound
Renin (Homo sapiens) = target: T1, Renin (Homo sapiens) (UniProt P00797); assay: Concentration required for 50% inhibition of human plasma renin at 10e-6 nM of the compound; assay type: cell-free
T1 sequence (whole entry): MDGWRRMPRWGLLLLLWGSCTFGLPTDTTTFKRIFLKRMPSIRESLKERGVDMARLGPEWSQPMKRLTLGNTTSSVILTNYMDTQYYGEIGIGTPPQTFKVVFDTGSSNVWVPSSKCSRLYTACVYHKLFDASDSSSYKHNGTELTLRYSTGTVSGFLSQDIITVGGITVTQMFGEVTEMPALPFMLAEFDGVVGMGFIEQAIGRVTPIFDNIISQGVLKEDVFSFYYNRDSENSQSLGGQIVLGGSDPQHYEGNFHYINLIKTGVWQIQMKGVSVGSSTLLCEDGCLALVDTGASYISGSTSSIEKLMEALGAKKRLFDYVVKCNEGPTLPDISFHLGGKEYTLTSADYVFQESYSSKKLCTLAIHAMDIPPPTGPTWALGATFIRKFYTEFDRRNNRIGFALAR

Sus scrofa [5] = species on record: Sus scrofa; assay: Concentration required for 50% inhibition of porcine kidney renin at 10e-7 nM of the compound
Renin = target: T2, Renin (Homo sapiens, UniProt P00797); assay: Concentration required for 50% inhibition of human plasma renin; assay type: cell-free
T2 sequence (P00797 whole entry): T1 sequence (whole entry)

[6] = buffer, pH 7.4
Description: Solubility (phosphate buffer, pH 7.4)

Sus scrofa [7] = species on record: Sus scrofa; assay: Concentration required for 50% inhibition of porcine kidney renin at 10e-7 (nM) concentration
[8] = test system: Renin (Canis lupus familiaris); assay: Concentration required for 50% inhibition of renin; 10e-6 (nM)
Sus scrofa [9] = species on record: Sus scrofa; assay: Concentration required for 50% inhibition of porcine kidney renin at 10e-6 (nM) concentration
[10] = test system: Renin (Canis lupus familiaris); assay: Concentration required for 50% inhibition of renin at 10e-6 nM concentration
Sus scrofa [11] = species on record: Sus scrofa; assay: Concentration required for 50% inhibition of porcine kidney renin at 10e-7 nM concentration
Renin (Sus scrofa) = assay: Inhibition of porcine kidney renin
[12] = target: Renin (Canis lupus familiaris); assay: Inhibition of renin
Sus scrofa [13] = species on record: Sus scrofa; assay: Concentration required for 50% inhibition of porcine kidney renin; assay type: functional

SMILES: CC(C)CC(NC(=O)[C@H](Cc1c[nH]cn1)NC(=O)[C@H](Cc1ccccc1)NC(=O)OC(C)(C)C)C(O)CC(=O)N[C@@H](CC(C)C)C(=O)NCC(N)c1ccccn1 (some centres not stated)
- solubility (physchem [1]): 890 µM (≈ 705 µg/mL)
- logD [2]: > 2
- solubility (physchem [3]): 400 µM (≈ 317 µg/mL)

SMILES: CC(C)CC(NC(=O)[C@H](Cc1c[nH]cn1)NC(=O)[C@H](Cc1ccccc1)NC(=O)OC(C)(C)C)C(O)CC(=O)N[C@@H](CC(C)C)C(=O)NCCC(N)C(=O)O (stereo in doubt; 16)
- inhibition [4]: 15%
- inhibition (Renin (Homo sapiens)): 25%
- inhibition (Sus scrofa [5]): 0%

SMILES: CC(C)CC(NC(=O)[C@H](Cc1cnc[nH]1)NC(=O)[C@H](Cc1ccccc1)NC(=O)OC(C)(C)C)C(O)CC(=O)N[C@@H](CC(C)C)C(=O)NCCN (some centres not stated)
- solubility (physchem [1]): 2600 µM (≈ 1860 µg/mL)
- logD [2]: 0.949
- solubility (physchem [3]): 4900 µM (≈ 3500 µg/mL)
- IC50 (Renin): 140 nM

SMILES: CC(C)C[C@H](NC(=O)C[C@H](O)[C@H](CC(C)C)NC(=O)[C@H](Cc1c[nH]cn1)NC(=O)[C@H](Cc1ccccc1)NC(=O)OC(C)(C)C)C(=O)N[C@@H](Cc1ccccc1)C(N)=O (Boc-FH[Sta]LF-NH2)
- solubility (physchem [1]): < 20 µM
- logD [2]: > 2
- solubility (physchem [3]): < 20 µM

SMILES: CC(C)CC(NC(=O)[C@H](Cc1c[nH]cn1)NC(=O)[C@H](Cc1ccccc1)NC(=O)OC(C)(C)C)C(O)CC(=O)N[C@@H](CC(C)C)C(=O)NC(C(=O)O)c1ccccc1 (some centres not stated) (Boc-FH[X1]L[ξPhg]-OH)
- solubility (physchem [1]): 740 µM (≈ 596 µg/mL)
- logD [2]: 1.22
- inhibition [4]: 45%
- inhibition (Renin (Homo sapiens)): 44%
- solubility (physchem [3]): 2200 µM (≈ 1770 µg/mL)
- inhibition (Sus scrofa [5]): 0%

SMILES: CC(C)CC(NC(=O)[C@H](Cc1c[nH]cn1)NC(=O)[C@H](Cc1ccccc1)NC(=O)OC(C)(C)C)C(O)CC(=O)N[C@@H](CC(C)C)C(=O)NCc1ccncc1 (some centres not stated)
- solubility (physchem [1]): 440 µM (≈ 336 µg/mL)
- logD [2]: > 2
- solubility (physchem [3]): 340 µM (≈ 259 µg/mL)

SMILES: CC(C)CC(NC(=O)[C@H](Cc1c[nH]cn1)NC(=O)[C@H](Cc1ccccc1)NC(=O)OC(C)(C)C)C(O)CC(=O)N[C@@H](CC(C)C)C(=O)NCCC(N)C(=O)O (stereo in doubt; 17) [listing 1 of 2 here]
- S [6]: 1400 µM
- solubility (physchem [1]): 3400 µM (≈ 2630 µg/mL)
- logD [2]: 1.03

SMILES: CC(C)C[C@H](NC(=O)CC(O)C(CC1CCCCC1)NC(=O)[C@H](Cc1c[nH]cn1)NC(=O)[C@H](Cc1ccccc1)NC(=O)OC(C)(C)C)C(=O)NCc1cccc(CN=C(N)N)c1 (some centres not stated)
- solubility (physchem [1]): > 250 µM
- logD [2]: > 2
- solubility (physchem [3]): 40 µM (≈ 34.9 µg/mL)

SMILES: CC(C)C[C@H](NC(=O)CC(O)C(CC1CCCCC1)NC(=O)[C@H](Cc1cnc[nH]1)NC(=O)[C@H](Cc1ccccc1)NC(=O)OC(C)(C)C)C(=O)NCc1ccncc1 (some centres not stated)
- logD [2]: > 2
- solubility (physchem [3]): < 10 µM

SMILES: CC(C)CC(NC(=O)[C@H](Cc1c[nH]cn1)NC(=O)[C@H](Cc1ccccc1)NC(=O)OC(C)(C)C)C(O)CC(=O)N[C@@H](CC(C)C)C(=O)NCc1cc[n+]([O-])cc1 (some centres not stated)
- inhibition (Sus scrofa [7]): 29%

SMILES: CC(C)CC(NC(=O)[C@H](Cc1c[nH]cn1)NC(=O)[C@H](Cc1ccccc1)NC(=O)OC(C)(C)C)C(O)CC(=O)N[C@@H](CC(C)C)C(=O)NCCC(N)C(=O)O (stereo in doubt; 17) [listing 2 of 2 here]
- inhibition (Renin (Homo sapiens)): 8%
- inhibition [8]: 22%
- inhibition (Sus scrofa [9]): 0%

SMILES: CC(C)CC(NC(=O)[C@H](Cc1cnc[nH]1)NC(=O)[C@H](Cc1ccccc1)NC(=O)OC(C)(C)C)C(O)CC(=O)N[C@@H](CC(C)C)C(=O)NCc1cccc(CN=C(N)N)c1 (some centres not stated)
- solubility (physchem [1]): 3000 µM (≈ 2500 µg/mL)
- logD [2]: 1.03
- solubility (physchem [3]): 930 µM (≈ 775 µg/mL)

SMILES: CC(C)CC(NC(=O)[C@H](Cc1c[nH]cn1)NC(=O)[C@H](Cc1ccccc1)NC(=O)OC(C)(C)C)C(O)CC(=O)N[C@@H](CC(C)C)C(=O)NC(Cc1cccc(CN)c1)C(=O)O (some centres not stated)
- solubility (physchem [1]): 390 µM (≈ 331 µg/mL)
- logD [2]: 1.83
- solubility (physchem [3]): 1500 µM (≈ 1270 µg/mL)
- IC50 (Renin): 880 nM
- inhibition [10]: 18%
- inhibition (Sus scrofa [11]): 0%

SMILES: CC(C)CC(NC(=O)[C@H](Cc1cnc[nH]1)NC(=O)[C@H](Cc1ccccc1)NC(=O)OC(C)(C)C)C(O)CC(=O)N[C@@H](CC(C)C)C(=O)NCc1cccc(CN)c1 (some centres not stated)
- IC50 (Renin (Sus scrofa)): 54 nM
- solubility (physchem [1]): 880 µM (≈ 696 µg/mL)
- logD [2]: 1.89
- solubility (physchem [3]): 1400 µM (≈ 1110 µg/mL)
- IC50 (Renin): 9 nM
- IC50 [12]: 110 nM

SMILES: CC(C)CC(NC(=O)[C@H](Cc1cnc[nH]1)NC(=O)[C@H](Cc1ccccc1)NC(=O)OC(C)(C)C)C(O)CC(=O)N[C@@H](CC(C)C)C(=O)NCCCN(CCO)CCO (some centres not stated)
- IC50 (Sus scrofa [13]): 900 nM
- solubility (physchem [1]): 960 µM (≈ 784 µg/mL)
- logD [2]: 1.4
- solubility (physchem [3]): 4300 µM (≈ 3510 µg/mL)
- IC50 (Renin): 170 nM

SMILES: CC(C)C[C@H](NC(=O)CC(O)C(CC1CCCCC1)NC(=O)[C@H](Cc1cnc[nH]1)NC(=O)[C@H](Cc1ccccc1)NC(=O)OC(C)(C)C)C(=O)NCc1cccc(OCC(=O)O)c1 (some centres not stated)
- solubility (physchem [1]): 30 µM (≈ 26.3 µg/mL)
- logD [2]: > 2
- solubility (physchem [3]): 210 µM (≈ 184 µg/mL)

SMILES: CC(C)CC(NC(=O)[C@H](Cc1cnc[nH]1)NC(=O)[C@H](Cc1ccccc1)NC(=O)OC(C)(C)C)C(O)CC(=O)N[C@@H](CC(C)C)C(=O)NCc1cc[n+]([O-])cc1 (some centres not stated)
- solubility (physchem [1]): 6500 µM (≈ 5060 µg/mL)
- solubility (physchem [3]): 4200 µM (≈ 3270 µg/mL)

SMILES: CC(C)CC(NC(=O)[C@H](Cc1c[nH]cn1)NC(=O)[C@H](Cc1ccccc1)NC(=O)OC(C)(C)C)C(O)CC(=O)N[C@@H](CC(C)C)C(=O)N1CCN(Cc2ccccc2)CC1 (some centres not stated)
- IC50 (Renin (Sus scrofa)): 280 nM
- solubility (physchem [1]): < 10 µM
- logD [2]: > 2
- solubility (physchem [3]): < 10 µM
- IC50 (Renin): 127 nM
- IC50 [12]: 310 nM

SMILES: CC(C)CC(NC(=O)[C@H](Cc1cnc[nH]1)NC(=O)[C@H](Cc1ccccc1)NC(=O)OC(C)(C)C)C(O)CC(=O)N[C@@H](CC(C)C)C(=O)NCc1cccc(OCC(=O)O)c1 (some centres not stated)
- solubility (physchem [1]): 270 µM (≈ 226 µg/mL)
- logD [2]: > 2
- solubility (physchem [3]): 1800 µM (≈ 1500 µg/mL)

SMILES: CC(C)C[C@H](NC(=O)C[C@H](O)[C@H](CC(C)C)NC(=O)[C@H](Cc1c[nH]cn1)NC(=O)[C@H](Cc1ccccc1)NC(=O)OC(C)(C)C)C(=O)NCc1ccccc1 (Boc-FH[Sta]L-NHBn)
- solubility (physchem [1]): < 10 µM
- logD [2]: > 2
- solubility (physchem [3]): < 10 µM

SMILES: CC(C)CC(NC(=O)[C@H](Cc1c[nH]cn1)NC(=O)[C@H](Cc1ccccc1)NC(=O)OC(C)(C)C)C(O)CC(=O)N[C@@H](CC(C)C)C(=O)NCc1ccccn1 (some centres not stated)
- solubility (physchem [1]): 380 µM (≈ 290 µg/mL)
- logD [2]: > 2
- solubility (physchem [3]): 180 µM (≈ 137 µg/mL)

SMILES: CC(C)CC(NC(=O)[C@H](Cc1c[nH]cn1)NC(=O)[C@H](Cc1ccccc1)NC(=O)OC(C)(C)C)C(O)CC(=O)N[C@@H](CC(C)C)C(=O)NCCN (some centres not stated)
- inhibition [8]: 32%
- inhibition (Sus scrofa [9]): 31%

SMILES: CC(C)CC(NC(=O)[C@H](Cc1c[nH]cn1)NC(=O)[C@H](Cc1ccccc1)NC(=O)OC(C)(C)C)C(O)CC(=O)N[C@@H](CC(C)C)C(=O)NCCN=C(N)N (some centres not stated)
- IC50 (Renin (Sus scrofa)): 710 nM
- solubility (physchem [1]): 24000 µM (≈ 18200 µg/mL)
- logD [2]: 0.322
- inhibition [4]: 32%
- solubility (physchem [3]): 11000 µM (≈ 8330 µg/mL)
- IC50 (Renin): 64 nM
